Source: BindingDB's records for doi:10.1002/cbic.201200316 (Moffitt Cancer Center, 2012)

Target: Cyclin-dependent kinase 2 (Homo sapiens, UniProt P24941)
Test: Inhibition Assay
Experimental: The inhibitory against activated CDK2-cyclin A2 complex was determined by using the ADP Quest fluorescence assay from (DiscoveRX, Fremont, CA)

| SMILES | IC50 [µM] |
| --- | --- |
| Cc1ccc(N=Nc2c(O)ccc3nn[nH]c23)cc1 | > 150 |
| O=C1c2ccccc2C(=O)C1c1ccccn1 | 46 |
| Nc1ccc2c(c1Cl)C(=O)c1ccc(N)c(Cl)c1C2=O [2,6-bis(azanyl)-1,5-bis(chloranyl)anthracene-9,10-dione] | > 150 |
| O=c1cc(-c2ccc(O)cc2)oc2c(O)c(O)c(O)c(O)c12 [2-(4-hydroxyphenyl)-5,6,7,8-tetrakis(oxidanyl)chromen-4-one] | > 150 |
| Oc1ccc(/N=C/c2c(O)ccc3ccccc23)cc1 [Hit compound, 3] | > 150 |
| O=c1[nH]c(O)ccc1N=Nc1ccc(S(=O)(=O)O)cc1 [Hit compound, 4] | 45 |
| COCc1cc(/N=N/c2cccc(S(N)(=O)=O)c2)c2ccccc2c1N [Hit compound, 5] | 53 |
| Cc1ccc(/N=N/c2ccc(N)cc2C)c(S(N)(=O)=O)c1 [Hit compound, 7] | > 150 |
| Nc1cc([N+](=O)[O-])ccc1Nc1ccc(O)cc1 [Hit compound, 12] | > 150 |
